Test results from patent publication US20230312576A1, “4-(7H-PYRROLO[2,3-D]PYRIMIDIN-4-YL)-3,6-DIHYDROPYRIDINE-1-(2H)-CARBOXAMIDE DERIVATIVES AS LIMK AND/OR ROCK KINASES INHIBITORS FOR USE IN THE TREATMENT OF CANCER” (CENTRE NATIONAL DE LA RECHERCHE SCIENTIFIQUE, priority 2020, published 2023).
Read-outs that look alike come from different tables or passages of the source.

Tests used:
[1] = test system: cofilin phosphorylation, HeLa cells; test: Cofilin phosphorylation by Western Blot (anti-phospho-Ser3-cofilin) in HeLa cells; assay type: cell-based; conditions: for inhibition at 25 µM: Homo sapiens; for inhibition at 25 µM / % inhibition Cofilin phosphorylation HeLa cells treated 2 h with 25 uM of inhibitor: 2 h
[2] = molecular target: LIMK1 (Homo sapiens (Human), UniProt P53667); test: Lanthascreen Eu binding assay (TR-FRET), inhibition of LIMK1
[3] = molecular target: LIMK2 (Homo sapiens (Human), UniProt P53671); test: Lanthascreen Eu binding assay (TR-FRET), inhibition of LIMK2
[4] = molecular target: ROCK1 (Homo sapiens (Human), UniProt Q13464); test: Z'Lyte assay, ROCK1 inhibition at a single concentration; assay type: biochemical
[5] = test system: cofilin phosphorylation, MPNST88-14 cells; test: Cofilin phosphorylation by Western Blot in MPNST88-14 cells; assay type: cell-based
[6] = molecular target: ROCK2 (Homo sapiens (Human), UniProt O75116); test: Z'Lyte assay, ROCK2 inhibition at a single concentration; assay type: biochemical
[7] = molecular target: LIMK1 and LIMK2; test: Lanthascreen Eu binding assay, Ki without LIMK isoform; conditions: LIMK isoform not stated
[8] = test system: cofilin phosphorylation, MPNST90-8 cells; test: Cofilin phosphorylation by Western Blot in MPNST90-8 cells; assay type: cell-based; conditions: for inhibition at 25 µM: read-out: % inhibition Cofilin phosphorylation MPNST90-8 cells treated 2 h with 25 uM of inhibitor, MPNST90-8 cells, 25 uM
[9] = test system: SOD1-G93A transgenic mice; test: In vivo assay on a mouse model of ALS; conditions: 10 mg/Kg intraperitoneal, 2 times a week from week 8
[10] = HeLa, read-out: % inhibition Cofilin phosphorylation HeLa cells treated 2 h with 25 uM of inhibitor
[11] = read-out: % inhibition (ROCK1) 1 uM
[12] = 2 h, read-out: % inhibition Cofilin phosphorylation MPNST88-14 cells treated 2 h with 25 uM of inhibitor
[13] = read-out: % inhibition (ROCK2) 1 uM
[14] = HeLa, read-out: % inhibition of cofilin phosphorylation in HeLa cells (treatment 2 h, at 25 μM), Table 2, normalized to the control condition DMSO
[15] = read-out: % inhibition Cofilin phosphorylation HeLa cells treated 2 h with 25 uM of inhibitor, HeLa cells, 25 uM
[16] = read-out: % inhibition (ROCK1) 1 uM, 1 uM
[17] = read-out: % inhibition Cofilin phosphorylation MPNST88-14 cells treated 2 h with 25 uM of inhibitor, MPNST88-14 cells, 25 uM
[18] = read-out: % inhibition (ROCK2) 1 uM, 1 uM
[19] = HeLa, read-out: % inhibition of cofilin phosphorylation in HeLa cells (treatment 2 h, at 25 μM)
[20] = Table 2, normalized to the control condition DMSO

ROCK1, sequence (Q13464 whole entry): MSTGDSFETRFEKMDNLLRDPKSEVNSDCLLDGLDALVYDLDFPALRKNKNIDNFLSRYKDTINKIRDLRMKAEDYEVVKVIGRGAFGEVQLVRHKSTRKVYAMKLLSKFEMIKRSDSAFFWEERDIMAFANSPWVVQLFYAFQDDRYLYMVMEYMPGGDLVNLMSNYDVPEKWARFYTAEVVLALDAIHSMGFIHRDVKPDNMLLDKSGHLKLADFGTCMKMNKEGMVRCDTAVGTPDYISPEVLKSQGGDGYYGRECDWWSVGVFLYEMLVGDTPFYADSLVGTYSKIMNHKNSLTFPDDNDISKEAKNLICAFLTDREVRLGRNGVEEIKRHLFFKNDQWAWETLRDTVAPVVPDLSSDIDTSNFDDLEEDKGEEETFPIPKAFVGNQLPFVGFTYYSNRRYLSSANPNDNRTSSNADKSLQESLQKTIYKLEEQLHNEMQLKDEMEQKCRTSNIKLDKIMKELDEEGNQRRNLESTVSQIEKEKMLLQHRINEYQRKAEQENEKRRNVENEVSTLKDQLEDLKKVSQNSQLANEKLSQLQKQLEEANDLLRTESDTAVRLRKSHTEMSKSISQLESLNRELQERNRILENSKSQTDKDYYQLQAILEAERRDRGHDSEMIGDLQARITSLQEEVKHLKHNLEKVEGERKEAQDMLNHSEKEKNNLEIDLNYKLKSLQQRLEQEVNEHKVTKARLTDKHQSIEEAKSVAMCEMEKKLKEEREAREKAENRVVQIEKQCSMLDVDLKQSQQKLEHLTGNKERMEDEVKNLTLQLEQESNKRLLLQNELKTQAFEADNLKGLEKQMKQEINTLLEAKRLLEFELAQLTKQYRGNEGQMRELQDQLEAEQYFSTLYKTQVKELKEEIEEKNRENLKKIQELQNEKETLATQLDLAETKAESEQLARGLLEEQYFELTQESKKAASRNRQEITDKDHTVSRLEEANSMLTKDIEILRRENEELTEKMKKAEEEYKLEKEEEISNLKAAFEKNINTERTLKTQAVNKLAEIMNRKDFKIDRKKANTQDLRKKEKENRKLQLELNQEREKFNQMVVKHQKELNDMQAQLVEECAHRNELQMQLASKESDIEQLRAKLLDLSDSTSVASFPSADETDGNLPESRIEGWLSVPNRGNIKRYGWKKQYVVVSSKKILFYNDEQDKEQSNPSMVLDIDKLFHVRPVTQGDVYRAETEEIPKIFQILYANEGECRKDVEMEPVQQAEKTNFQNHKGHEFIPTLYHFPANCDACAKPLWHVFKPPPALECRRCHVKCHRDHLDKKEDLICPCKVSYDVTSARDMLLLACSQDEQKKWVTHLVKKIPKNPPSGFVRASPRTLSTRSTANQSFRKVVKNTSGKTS
ROCK2, sequence (O75116 whole entry, canonical isoform): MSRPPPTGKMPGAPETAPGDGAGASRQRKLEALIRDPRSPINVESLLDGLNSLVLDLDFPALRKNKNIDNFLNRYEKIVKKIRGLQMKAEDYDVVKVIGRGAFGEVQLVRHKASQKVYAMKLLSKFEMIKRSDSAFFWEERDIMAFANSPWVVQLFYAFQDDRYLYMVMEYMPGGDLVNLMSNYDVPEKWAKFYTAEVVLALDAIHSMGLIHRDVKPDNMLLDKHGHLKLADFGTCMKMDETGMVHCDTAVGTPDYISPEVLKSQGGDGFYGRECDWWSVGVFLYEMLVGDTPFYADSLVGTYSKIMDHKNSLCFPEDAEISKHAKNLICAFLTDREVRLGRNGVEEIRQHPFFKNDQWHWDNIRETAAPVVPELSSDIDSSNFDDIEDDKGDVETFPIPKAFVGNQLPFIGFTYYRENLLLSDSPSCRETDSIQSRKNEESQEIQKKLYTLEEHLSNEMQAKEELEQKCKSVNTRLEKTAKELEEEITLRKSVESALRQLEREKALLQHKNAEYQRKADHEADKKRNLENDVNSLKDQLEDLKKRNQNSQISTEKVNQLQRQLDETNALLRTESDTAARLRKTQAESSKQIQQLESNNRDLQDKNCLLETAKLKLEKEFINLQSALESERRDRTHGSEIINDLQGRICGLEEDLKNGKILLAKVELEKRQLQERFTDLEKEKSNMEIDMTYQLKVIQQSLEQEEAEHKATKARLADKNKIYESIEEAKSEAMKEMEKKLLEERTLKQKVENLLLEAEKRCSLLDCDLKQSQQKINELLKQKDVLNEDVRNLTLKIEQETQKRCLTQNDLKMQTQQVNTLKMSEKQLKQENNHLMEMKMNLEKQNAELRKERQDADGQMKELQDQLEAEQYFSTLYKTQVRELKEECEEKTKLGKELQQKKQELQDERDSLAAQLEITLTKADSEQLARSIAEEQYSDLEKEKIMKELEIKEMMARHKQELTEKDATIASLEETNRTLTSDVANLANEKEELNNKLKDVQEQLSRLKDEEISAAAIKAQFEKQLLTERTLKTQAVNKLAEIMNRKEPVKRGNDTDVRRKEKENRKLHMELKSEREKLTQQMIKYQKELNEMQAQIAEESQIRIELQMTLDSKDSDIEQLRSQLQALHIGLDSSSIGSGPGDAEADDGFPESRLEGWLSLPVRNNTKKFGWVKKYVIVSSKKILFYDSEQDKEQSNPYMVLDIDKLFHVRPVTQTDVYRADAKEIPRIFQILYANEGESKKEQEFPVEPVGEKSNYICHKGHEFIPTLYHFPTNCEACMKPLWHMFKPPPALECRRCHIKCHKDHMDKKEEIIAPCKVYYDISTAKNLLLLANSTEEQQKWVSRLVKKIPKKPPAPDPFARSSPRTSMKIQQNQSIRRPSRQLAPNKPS
LIMK1, sequence (P53667 whole entry): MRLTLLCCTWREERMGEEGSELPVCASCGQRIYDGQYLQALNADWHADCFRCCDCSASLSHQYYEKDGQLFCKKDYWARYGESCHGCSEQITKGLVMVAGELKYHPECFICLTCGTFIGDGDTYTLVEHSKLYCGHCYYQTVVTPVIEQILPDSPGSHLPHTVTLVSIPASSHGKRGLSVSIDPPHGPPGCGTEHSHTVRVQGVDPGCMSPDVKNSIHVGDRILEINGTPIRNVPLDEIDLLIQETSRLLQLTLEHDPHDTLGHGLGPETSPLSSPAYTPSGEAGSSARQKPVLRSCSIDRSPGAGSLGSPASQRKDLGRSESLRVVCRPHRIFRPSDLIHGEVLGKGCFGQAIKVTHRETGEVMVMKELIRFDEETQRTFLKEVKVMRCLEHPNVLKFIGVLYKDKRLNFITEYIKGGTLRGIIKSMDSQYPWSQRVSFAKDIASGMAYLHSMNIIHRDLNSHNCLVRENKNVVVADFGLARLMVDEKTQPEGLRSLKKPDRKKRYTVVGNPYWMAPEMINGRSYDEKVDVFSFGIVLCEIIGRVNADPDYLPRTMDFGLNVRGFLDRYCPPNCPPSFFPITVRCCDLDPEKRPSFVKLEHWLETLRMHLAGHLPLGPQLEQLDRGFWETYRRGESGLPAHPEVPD
LIMK2, sequence (P53671 whole entry): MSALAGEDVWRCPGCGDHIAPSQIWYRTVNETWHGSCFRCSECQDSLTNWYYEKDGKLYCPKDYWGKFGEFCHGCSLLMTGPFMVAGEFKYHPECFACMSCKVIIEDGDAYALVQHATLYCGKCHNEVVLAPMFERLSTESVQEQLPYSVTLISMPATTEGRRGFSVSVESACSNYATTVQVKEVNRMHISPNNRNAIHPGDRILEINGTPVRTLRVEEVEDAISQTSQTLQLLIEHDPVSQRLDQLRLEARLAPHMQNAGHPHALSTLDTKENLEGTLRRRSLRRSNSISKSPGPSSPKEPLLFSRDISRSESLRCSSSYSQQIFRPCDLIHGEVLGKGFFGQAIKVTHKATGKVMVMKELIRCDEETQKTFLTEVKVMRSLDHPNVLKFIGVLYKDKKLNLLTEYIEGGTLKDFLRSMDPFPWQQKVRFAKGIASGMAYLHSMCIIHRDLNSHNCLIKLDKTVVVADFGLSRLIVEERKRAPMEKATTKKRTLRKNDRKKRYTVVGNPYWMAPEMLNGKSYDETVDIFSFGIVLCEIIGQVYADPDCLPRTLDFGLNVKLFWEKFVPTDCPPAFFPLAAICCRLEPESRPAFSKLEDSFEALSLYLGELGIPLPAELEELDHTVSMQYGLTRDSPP

Row | SMILES | inhibition at 1 µM [4, 11] | inhibition at 1 µM [6, 13] | inhibition at 25 µM [1, 14] | inhibition at 25 µM [1, 15] | Ki ([2]; Lanthascreen Eu binding assay) | Ki ([3]; Lanthascreen Eu binding assay) | inhibition at 1 µM [4, 16] | inhibition at 25 µM [5, 17] | inhibition at 1 µM [6, 18] | other results
1 | O=C(Nc1cccc(Br)c1)N1CC=C(c2ncnc3[nH]c4c(c23)COCC4)CC1 [Compound 159, N-(3-Bromophenyl)-4-(5,7,8,9-tetrahydropyrano[3′,4′:4,5]pyrrolo[2,3-d]pyrimidin-4-yl)-3,6-dihydropyridine-1(2H)-carboxamide] | 11% | 3% | – | – | – | – | – | – | – | inhibition at 25 µM [1, 10]: 70.3%; Ki [2]: 51 nM; Ki [3]: 51.5 nM; inhibition at 25 µM [5, 12]: 64.3%
2 | O=C(Nc1cccc(F)c1)N1CC=C(c2ncnc3[nH]c4c(c23)COCC4)CC1 [Compound 157, N-(3-Fluorophenyl)-4-(5,7,8,9-tetrahydropyrano[3′,4′:4,5]pyrrolo[2,3-d]pyrimidin-4-yl)-3,6-dihydropyridine-1(2H)-carboxamide] | – | – | 79.5% | 79.5% | 172 nM | 319 nM | 7% | 56.5% | -1% | –
3 | O=C(Nc1cccc(Cl)c1)N1CC=C(c2ncnc3[nH]c4c(c23)CSCC4)CC1 [Compound 155, N-(3-Chlorophenyl)-4-(5,7,8,9-tetrahydrothiopyrano [3′,4′:4,5]pyrrolo[2,3-d]pyrimidin-4-yl)-3,6-dihydropyridine-1(2H)-carboxamide] | 10% | 14% | – | 72.8% | 94.1 nM | 94.2 nM | – | 57.7% | – | –
4 | Cc1c[nH]c2ncnc(N3CCC(CN)(C(=O)Nc4cccc(OC(=O)N(C)C)c4)CC3)c12 [LX7101, reference compound] | – | – | 85.1% | – | – | – | – | – | – | Ki [7]: 3.9 nM
5 | O=C(Nc1cccc(Cl)c1)N1CC=C(c2ncnc3[nH]c4c(c23)COCC4)CC1 [Compound 158, N-(3-Chlorophenyl)-4-(5,7,8,9-tetrahydropyrano[3′,4′:4,5]pyrrolo[2,3-d]pyrimidin-4-yl)-3,6-dihydropyridine-1(2H)-carboxamide] | 2% | 1% | – | 65.3% | 65.6 nM | 93 nM | – | 59.8% | – | –
6 | Cc1c[nH]c2ncnc(C3=CC(C)N(C(=O)Nc4cccc(F)c4)C(C)C3)c12 (stereo not shown) [Compound 57, N-(3-Fluorophenyl)-2,6-dimethyl-4-(5-methyl-7H-pyrrolo[2,3-d]pyrimidin-4-yl)-3,6-dihydropyridine-1(2H)-carboxamide] | – | – | 90.3% | 90.3% | 46.6 nM | 103 nM | 59% | 81% | 36% | inhibition at 25 µM [8]: 93.3%
7 | Cc1c[nH]c2ncnc(C3=CC(C)N(C(=O)Nc4cccc(Cl)c4)C(C)C3)c12 (stereo not shown) [Compound 58, N-(3-Chlorophenyl)-2,6-dimethyl-4-(5-methyl-7H-pyrrolo[2,3-d]pyrimidin-4-yl)-3,6-dihydropyridine-1(2H)-carboxamide] | 34% | 32% | – | – | – | – | – | – | – | inhibition at 25 µM [1, 10]: 91.4%; inhibition at 25 µM [1, 19]: 91.4%; inhibition at 25 µM [5, 12]: 77.3%
8 | Cc1c[nH]c2ncnc(C3=CC(C)N(C(=O)Nc4cccc(Br)c4)C(C)C3)c12 (stereo not shown) [Compound 59, N-(3-Bromophenyl)-2,6-dimethyl-4-(5-methyl-7H-pyrrolo[2,3-d]pyrimidin-4-yl)-3,6-dihydropyridine-1(2H)-carboxamide] | 34% | 40% | – | – | – | – | – | – | – | inhibition at 25 µM [1, 10]: 93.6%; inhibition at 25 µM [1, 19]: 93.6%; inhibition at 25 µM [5, 12]: 74.7%
9 | O=C(Nc1cccc(Cl)c1)N1CC=C(c2ncnc3[nH]c4c(c23)CCCC4)CC1 [Compound 114, N-(3-Chlorophenyl)-4-(6,7,8,9-tetrahydro-5H-pyrimido[4,5-b]indol-4-yl)-3,6-dihydropyridine-1(2H)-carboxamide] | 4% | 8% | 89.3% | 89.3% | 9.98 nM | 25.5 nM | – | 74.7% | – | –
10 | CN(C)C(=O)Oc1cccc(NC(=O)N2CC=C(c3ncnc4[nH]c5c(c34)CCC5)CC2)c1 [Compound 122, 3-(4-(5,6,7,8-Tetrahydrocyclopenta[4,5]pyrrolo[2,3-d]pyrimidin-4-yl)-1,2,3,6-tetrahydropyridine-1-carboxamido)phenyl dimethyl carbamate] | – | – | – | – | 7.11 nM | 4.02 nM | – | – | – | % inhibition Cofilin phosphorylation HeLa cells treated 2 h with 25 uM of inhibitor ([1]; HeLa cells, 25 uM): 81.3%; % inhibition of cofilin phosphorylation in HeLa cells (treatment 2 h, at 25 μM) [1, 20]: 81.3%; % inhibition (ROCK1) 1 uM [4]: 4%; % inhibition Cofilin phosphorylation MPNST90-8 cells treated 2 h with 25 uM of inhibitor [8]: 65.6%; % inhibition (ROCK2) 1 uM [6]: 14%
11 | O=C(Nc1cccc(F)c1)N1CC=C(c2ncnc3[nH]c4c(c23)CCC4)CC1 [Compound 110, N-(3-Fluorophenyl)-4-(5,6,7,8-tetrahydrocyclopenta[4,5]pyrrolo[2,3-d]pyrimidin-4-yl)-3,6-dihydropyridine-1(2H)-carboxamide] | – | – | 79% | 79% | 5 nM | 41 nM | 3% | – | 9% | later development of the disease phenotype and endpoint of the disease (survival) [9]: do not observed improvement; loss of weight [9]: significant effect on delaying; onset of motor symptoms (early Neuroscore stages and first time decay in the rotarod test) [9]: significant effect on delaying
12 | O=C(Nc1cccc(F)c1)N1CC=C(c2ncnc3[nH]c4c(c23)CSCC4)CC1 [Compound 154, N-(3-Fluorophenyl)-4-(5,7,8,9-tetrahydrothiopyrano[3′,4′:4,5]pyrrolo[2,3-d]pyrimidin-4-yl)-3,6-dihydropyridine-1(2H)-carboxamide] | – | – | – | 66.9% | 52.7 nM | 78.6 nM | 5% | 57.7% | 7% | –
13 | Cc1c[nH]c2ncnc(C3=CC(C)N(C(=O)Nc4cccc(Oc5ccccc5)c4)C(C)C3)c12 (stereo not shown) [Compound 60, 2,6-Dimethyl-4-(5-methyl-7H-pyrrolo[2,3-d]pyrimidin-4-yl)-N-(3-phenoxyphenyl)-3,6-dihydro pyridine-1(2H)-carboxamide] | – | – | – | – | – | – | – | – | – | % inhibition Cofilin phosphorylation HeLa cells treated 2 h with 25 uM of inhibitor ([1]; HeLa cells, 25 uM): 94.2%; % inhibition of cofilin phosphorylation in HeLa cells (treatment 2 h, at 25 μM) [1, 20]: 94.2%; % inhibition (ROCK1) 1 uM [4]: 11%; % inhibition Cofilin phosphorylation MPNST88-14 cells treated 2 h with 25 uM of inhibitor ([5]; MPNST88-14 cells, 25 uM): 74.5%; % inhibition Cofilin phosphorylation MPNST90-8 cells treated 2 h with 25 uM of inhibitor [8]: 81.1%; % inhibition (ROCK2) 1 uM [6]: 7%
14 | O=C(Nc1cccc(Oc2ccccc2)c1)N1CC=C(c2ncnc3[nH]c4c(c23)CCC4)CC1 [Compound 125, N-(3-Phenoxyphenyl)-4-(5,6,7,8-tetrahydrocyclopenta[4,5]pyrrolo[2,3-d]pyrimidin-4-yl)-3,6-dihydropyridine-1(2H)-carboxamide] | – | – | 81.4% | 81.4% | 29 nM | 28.5 nM | 10% | 80.8% | -2% | inhibition at 25 µM [8]: 76.1%
15 | O=C(Nc1cccc(Br)c1)N1CC=C(c2ncnc3[nH]c4c(c23)CSCC4)CC1 [Compound 156, N-(3-Bromophenyl)-4-(5,7,8,9-tetrahydrothiopyrano [3′,4′:4,5]pyrrolo[2,3-d]pyrimidin-4-yl)-3,6-dihydropyridine-1(2H)-carboxamide] | 3% | 15% | – | – | – | – | – | – | – | inhibition at 25 µM [1, 10]: 68.2%; Ki [2]: 41.4 nM; Ki [3]: 31.5 nM; inhibition at 25 µM [5, 12]: 61.6%
